In publication PMC9696974 (Pharmaceutics, 2022):

Tests used:
Solubility in water = assay type: physicochemical
A549 cells = assay: MTT cell viability assay, A549, with or without UV light; assay type: cell-based, human; details: A549
Description: Cells. Commercially available from American Type Culture Collection (ATCC), human epithelial lung adenocarcinoma A549 (ATCC® CCL-185™) and human normal lung fibroblast WI-38 (ATCC® CCL-75™) were grown according to supplier’s conditions, namely in Dulbecco Modified Eagle’s Medium (DMEM, Sigma Aldrich, St. Louis, MO, USA) supplemented with 10% of fetal bovine serum (FBS, Sigma Aldrich, USA). Cells were incubated in the cell incubator (Thermo Fischer Scientific, Waltham, MA, USA) at 37 °C and 5% CO2 in a humidified atmosphere.
Cell viability assay. In order to obtain a 10 mM stock solution chemical compounds (2M, 1, and 1M) were sterilely diluted in an appropriate volume of dimethyl sulfoxide solution (DMSO, Gram-Mol, Zagreb, Croatia). Solutions were kept in the dark and stored at 4 °C. The cytotoxic effects of each compound were assayed on A549 and WI-38 cells. […] Briefly, cells were seeded in 96-well tissue culture plates and 24 h later treated with 2M, 1, or 1M in the concentration range of 10–0.1 μM. Cells treated with the same dilutions of DMSO represented the control, while cells treated only with DMEM (10% FBS) represented the negative control. After 72 h, the media was removed, MTT solution was added into each well, and the plate was incubated (37 °C, 5% CO2) for 3 h. The resulting MTT-formazan products were dissolved using DMSO, and their absorbance at 600 nm was measured using a microplate reader.
For determining the effect of UV exposure, cells were seeded on two plates and treated with working solutions of the respective compounds as previously described. Plates were incubated (37 °C, 5% CO2) for 90 min, allowing the compounds to enter the cells. Then, one plate was exposed to UV light (Luzchem reactor, 350 nm, 8 lamps, in total 8 W, dose 50.6 mWm^−2; ~18 cm lamp to cell-plate) for 5 min, 3 days in a row at the same time each day, while the other plate was left in the cell incubator in the dark and served as a control.

[1] = pKa from pH dependence of UV/vis spectrum; assay type: physicochemical; details: water (0.001 M HCl in miliQ water, titrated with NaOH), UV/vis spectra vs pH in water, c = 2.0 × 10^−5 M
ct-DNA [2] = assay: Fluorimetric titration with ct-DNA, Scatchard equation; assay type: binding, calf; design: key: The changes were too small to allow an accurate calculation of the binding constant; details: I = 0.05 M
Description: (§1) Experiments were conducted in an aqueous buffer solution (pH = 7.0 or pH= 5.0, I = 0.05 M, sodium cacodylate buffer). For the UV-Vis spectra were used Varian Cary 100 Bio spectrometer, for fluorescence spectra we used the Varian Cary Eclipse fluorimeter and for CD spectra we used the JASCO J815 spectropolarimeter, all conducted at 25.0 °C using appropriate quartz cuvettes (path length: 1 cm).
(§2) Polynucleotides were purchased as noted: poly dAdT-poly dAdT, poly dGdC-poly dGdC, poly A-poly U (ds-RNA), (Sigma-Aldrich, Schnelldorf, Germany), calf thymus (ct)-DNA (Sigma-Aldrich, Schnelldorf, Germany) and dissolved in sodium cacodylate buffer, I = 0.05 M, pH = 7.0. The ct-DNA was sonicated and filtered through a 0.45 µm filter to obtain mostly short (ca. 100 base pairs) rod-like B-helical DNA fragments. The concentration of DNA or RNA was determined spectroscopically as the c(nucleobase) using producer-provided molar extinction coefficients.
Fortunately, strong emission from the compounds studied allowed fluorimetric titrations to be performed at much lower concentrations of the dyes (c = 5 × 10^−8 M), thus preventing precipitation of non-methylated 1 or 2, and allowing for the collection of numerous data points at excess of DNA/RNA binding sites over c(dye). […] Intriguingly, mixed sequence ct-DNA caused emission quenching of 1M at an excess of dye over ct-DNA (r > 0.1), and such quenching could be attributed to aggregation of 1M along DNA, while at an excess of ct-DNA over dye (r << 0.1), emission increased. The emission of 2M was indiscriminately quenched by all ds-DNA/RNA (Figure 2d).
(§3) Processing of fluorimetric titrations by means of the Scatchard equation [56, 57] yielded binding constants (Table 2). […] Affinities of 1 and 2 toward BSA were the same at both pH values, supporting the conclusion that neutral forms of 1 and 2 were bound.

ct-DNA [3] = assay: Thermal denaturation of ct-DNA (∆Tm); assay type: binding, calf; details: r = 0.1, pH 5.0, sodium cacodylate buffer, I = 50 mM
Description: as §1, §2
Thermal denaturation of ds-DNA, ds-RNA and their complexes with studied compounds was performed by monitoring the absorption change at 260 nm as a function of temperature. Tm values are the midpoints of the transition curves determined from the maximum of the first derivative and checked graphically by the tangent method. The ∆Tm values were calculated by subtracting the Tm of the free nucleic acid from the Tm of the complex. Every ∆Tm value here reported was the average of at least two measurements. The error in ∆Tm is ± 0.5 °C.

BSA = BSA (Bos taurus, UniProt P02769); assay: Fluorimetric titration with BSA, Scatchard equation; assay type: binding, bovine; details: pH 7, sodium cacodylate buffer, I = 0.05 M; read-out: Binding constant logKs BSA (converted)
Description: as §1
As the pharmacokinetic properties of small molecules often depend on a binding affinity toward transport proteins (such as serum albumin), we performed fluorimetric titrations with BSA. The emission of both 1M and 2M (Supplementary Information, Figures S15 and S16), was strongly quenched, with compound 2M showing a lower affinity in comparison to ds-DNA/RNA, while the affinity of 1M was similar to that towards ds-DNA/RNA (Table 2).
as §3

BSA, sequence (P02769 25-607): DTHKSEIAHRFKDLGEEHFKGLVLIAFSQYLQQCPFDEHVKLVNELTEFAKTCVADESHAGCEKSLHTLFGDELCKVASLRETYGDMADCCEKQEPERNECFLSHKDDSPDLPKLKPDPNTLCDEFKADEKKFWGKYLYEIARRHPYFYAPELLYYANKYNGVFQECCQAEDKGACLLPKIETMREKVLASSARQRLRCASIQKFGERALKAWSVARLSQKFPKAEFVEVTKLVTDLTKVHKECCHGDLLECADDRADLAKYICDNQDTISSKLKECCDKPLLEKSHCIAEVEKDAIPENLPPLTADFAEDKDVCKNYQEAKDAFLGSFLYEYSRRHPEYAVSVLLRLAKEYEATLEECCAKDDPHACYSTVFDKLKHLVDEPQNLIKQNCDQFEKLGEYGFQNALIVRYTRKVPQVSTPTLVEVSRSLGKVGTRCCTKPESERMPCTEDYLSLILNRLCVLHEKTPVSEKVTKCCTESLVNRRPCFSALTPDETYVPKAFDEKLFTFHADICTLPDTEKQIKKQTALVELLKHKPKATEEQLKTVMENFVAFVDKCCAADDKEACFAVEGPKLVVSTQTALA

c1cc(-c2cc3ccc4cc(-c5ccncc5)cc5ccc(c2)c3c45)ccn1 [compound 2]
Solubility in water (Solubility in water): poorly soluble in water
Cytotoxic effect (cell survival, Figure S25) (A549 cells): no cytotoxic effect
pKa [1]: < 4
Binding constant logKs ct-DNA (ct-DNA [2]; pH 5, sodium cacodylate buffer): 5.7
Binding constant logKs ct-DNA (ct-DNA [2]; pH 7, sodium cacodylate buffer): b
∆Tm ct-DNA (ct-DNA [3]): 1.5 °C
Kd (BSA): 5.01 µM
